Experimental data from US9957271B2, “Substituted bicyclic aza-heterocycles and analogues as sirtuin modulators” (GlaxoSmithKline, LLC, priority 2012, dated 2018).

Legend:
[1] = molecular target: T1, SIRT1 (Homo sapiens, UniProt Q96EB6); assay: TAMRA based mass spectrometry assay of SIRT1 activity; format: biochemical; settings: TAMRA peptide substrate; for TAMRA EC1.5: concentration giving 150% activation of SIRT1; for Emax: percent maximum fold activation, read-out: TAMRA % Fold Act
T1 sequence (Q96EB6 1-747): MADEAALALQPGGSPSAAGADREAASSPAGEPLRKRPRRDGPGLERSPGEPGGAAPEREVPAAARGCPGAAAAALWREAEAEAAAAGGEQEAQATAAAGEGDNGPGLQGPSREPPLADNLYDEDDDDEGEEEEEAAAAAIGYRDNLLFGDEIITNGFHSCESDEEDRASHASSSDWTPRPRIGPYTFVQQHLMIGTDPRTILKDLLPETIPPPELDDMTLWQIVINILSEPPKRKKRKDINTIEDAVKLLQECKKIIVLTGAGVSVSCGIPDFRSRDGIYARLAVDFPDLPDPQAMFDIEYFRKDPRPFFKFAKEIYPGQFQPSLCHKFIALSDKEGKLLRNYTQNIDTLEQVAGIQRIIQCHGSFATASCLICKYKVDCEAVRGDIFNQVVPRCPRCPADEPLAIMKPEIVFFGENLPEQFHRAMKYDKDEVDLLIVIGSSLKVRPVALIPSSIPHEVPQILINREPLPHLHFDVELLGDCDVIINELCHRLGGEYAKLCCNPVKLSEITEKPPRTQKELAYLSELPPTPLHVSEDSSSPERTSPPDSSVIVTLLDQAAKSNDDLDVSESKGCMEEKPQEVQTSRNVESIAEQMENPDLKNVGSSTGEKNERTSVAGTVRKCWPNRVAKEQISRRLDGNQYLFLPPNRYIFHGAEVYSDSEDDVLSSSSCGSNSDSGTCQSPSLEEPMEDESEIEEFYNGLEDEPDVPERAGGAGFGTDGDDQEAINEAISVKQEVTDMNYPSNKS
Summary of the method: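 Deacetylation of a biotinylated, TAMRA-tagged p53-based peptide (0.5 μM) by 10 nM His-tagged SIRT1 with 120 μM βNAD+, 25 °C for 25 min, pH 8 Tris-acetate buffer, across a compound concentration range. Quenched by formic acid and read by mass spec as product peptide or OAADPR; activity relative to DMSO reactions, nicotinamide defining maximal inhibition.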

[2] = molecular target: T1, SIRT1; assay: Trp mass spectrometry assay of SIRT1 activity; format: biochemical; settings: Trp peptide substrate; for Trp EC1.5: concentration giving 150% activation of SIRT1; for Emax: percent maximum fold activation, read-out: Trp % Fold Act
Summary of the method: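 Activation readout: EC1.5 (concentration raising activity 50% over control) and percent maximum activation, from mass-spec quantitation of OAADPR or deacetylated Trp peptide. Reaction: 0.5 μM acetylated Trp peptide, 120 μM βNAD+, 10 nM bacterially expressed N-His SIRT1, pH 7.5 HEPES buffer with […], 25 min at 25° C.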

Row | Structure (SMILES) | TAMRA EC1.5 [1] | Emax [1] | Trp EC1.5 [2] | Emax [2]
1 | Cc1cc2ncc(NC(=O)c3cccc(N4CCC4)n3)n2nc1-c1ccccc1C(F)(F)F [Compound 448] | A (EC1.5<1 μM) | ≥ 350% | B (EC1.5 1-25 μM) | ≥ 350%
2 | Cc1cc2ncc(NC(=O)c3cccc(OCC(O)CO)n3)n2nc1-c1ccccc1C(F)(F)F (stereo not drawn) [Compound 449] | A (EC1.5<1 μM) | ≥ 350% | A (EC1.5<1 μM) | ≥ 350%
3 | O=C(Nc1cccnc1)c1ncn2ccc(-c3ccccc3C(F)(F)F)nc12 [Compound 451, N-(pyridin-3-yl)-2-(2-(trifluoromethyl)phenyl)imidazo[1,5-a]pyrimidine-8-carboxamide] | B (EC1.5 1-25 μM) | ≥ 350% | B (EC1.5 1-25 μM) | ≥ 350%
4 | O=C(Nc1cccc(N2CCOCC2)n1)c1ncn2ccc(-c3ccccc3C(F)(F)F)nc12 [Compound 454] | A (EC1.5<1 μM) | ≥ 350% | A (EC1.5<1 μM) | ≥ 350%
5 | O=C(Nc1ncn2ccc(-c3ccccc3C(F)(F)F)nc12)c1ccccn1 [Compound 455, N-(2-(2-(trifluoromethyl)phenyl)imidazo[1,5-a]pyrimidin-8-yl)picolinamide] | B (EC1.5 1-25 μM) | < 350% | C (EC1.5>25 μM) | < 350%
6 | Cc1nc(NC(=O)c2c(C)nc3c(C)cc(-c4ccccc4C(F)(F)F)nn23)sc1C [Compound 457] | A (EC1.5<1 μM) | ≥ 350% | A (EC1.5<1 μM) | < 350%
7 | Cc1nc2c(C)cc(-c3ccccc3C(F)(F)F)nn2c1C(=O)Nc1ccncn1 [Compound 460] | A (EC1.5<1 μM) | ≥ 350% | A (EC1.5<1 μM) | ≥ 350%
8 | Cc1nc2ccc(-c3ccccc3C(F)(F)F)nn2c1C(=O)Nc1ccncn1 [Compound 461] | A (EC1.5<1 μM) | ≥ 350% | B (EC1.5 1-25 μM) | ≥ 350%
9 | Cc1nc2ccc(-c3ccccc3C(F)(F)F)nn2c1C(=O)Nc1cnccn1 [Compound 463] | A (EC1.5<1 μM) | ≥ 350% | B (EC1.5 1-25 μM) | ≥ 350%
10 | Cc1nc2ccc(-c3ccccc3OC(F)(F)F)nn2c1C(=O)Nc1ccncc1F [Compound 466] | A (EC1.5<1 μM) | ≥ 350% | A (EC1.5<1 μM) | ≥ 350%
11 | O=C(Nc1cnc2ccc(-c3ccccc3C(F)(F)F)nn12)c1cccc(O)n1 [Compound 467] | B (EC1.5 1-25 μM) | ≥ 350% | B (EC1.5 1-25 μM) | < 350%
12 | Cc1nc2ccc(-c3ccccc3OC(F)(F)F)nn2c1C(=O)Nc1ccncn1 [Compound 469] | A (EC1.5<1 μM) | ≥ 350% | B (EC1.5 1-25 μM) | ≥ 350%
13 | Cc1nc2ccc(-c3ccccc3OC(F)(F)F)nn2c1C(=O)Nc1ccc(F)cn1 [Compound 472] | B (EC1.5 1-25 μM) | < 350% | C (EC1.5>25 μM) | < 350%
14 | Cc1nc2c(C)cc(-c3ccccc3C(F)(F)F)nn2c1C(=O)Nc1ccncc1F [Compound 473] | A (EC1.5<1 μM) | ≥ 350% | A (EC1.5<1 μM) | ≥ 350%

Other lines, results leading:

Row | TAMRA EC1.5 [1] | Emax [1] | Trp EC1.5 [2] | Emax [2] | Structure (SMILES)
15 | A (EC1.5<1 μM) | ≥ 350% | B (EC1.5 1-25 μM) | ≥ 350% | Cc1cc(NC(=O)c2c(C)nc3c(C)cc(-c4ccccc4C(F)(F)F)nn23)nc(C)n1 [Compound 475]
16 | A (EC1.5<1 μM) | ≥ 350% | A (EC1.5<1 μM) | ≥ 350% | Cc1nc2c(C)cc(-c3ccccc3OC(F)(F)F)nn2c1C(=O)Nc1ccncn1 [Compound 478]
17 | A (EC1.5<1 μM) | ≥ 350% | B (EC1.5 1-25 μM) | < 350% | Cc1cccc(NC(=O)c2c(C)nc3c(C)cc(-c4ccccc4OC(F)(F)F)nn23)n1 [Compound 480]
18 | A (EC1.5<1 μM) | ≥ 350% | A (EC1.5<1 μM) | ≥ 350% | Cc1cc(NC(=O)c2c(C)nc3c(C)cc(-c4ccccc4OC(F)(F)F)nn23)ccn1 [Compound 481]
19 | B (EC1.5 1-25 μM) | < 350% | C (EC1.5>25 μM) | < 350% | O=C(Nc1ncn2ccc(-c3ccccc3C(F)(F)F)nc12)c1ccncn1 [Compound 484]
20 | A (EC1.5<1 μM) | ≥ 350% | A (EC1.5<1 μM) | ≥ 350% | COc1cccc(NC(=O)c2cnn3ccc(-c4ccccc4C(F)(F)F)nc23)n1 [Compound 486]
21 | B (EC1.5 1-25 μM) | < 350% | A (EC1.5<1 μM) | ≥ 350% | O=C(Nc1cccc(N2CCOCC2)n1)c1cnc2ccc(N3CC[C@H](F)C3)nn12 [Compound 487, (S)-6-(3-fluoropyrrolidin-1-yl)-N-(6-morpholinopyridin-2-yl)imidazo[1,2-b]pyridazine-3-carboxamide]
22 | B (EC1.5 1-25 μM) | < 350% | A (EC1.5<1 μM) | ≥ 350% | O=C(Nc1cccc(N2CCOCC2)n1)c1cnc2ccc(N3CCC(F)(F)C3)nn12 [Compound 489]
23 | B (EC1.5 1-25 μM) | ≥ 350% | B (EC1.5 1-25 μM) | < 350% | Cc1cc(C)nc(NC(=O)c2cnc3ccc(N4CC[C@H](F)C4)nn23)c1 [Compound 490]
24 | A (EC1.5<1 μM) | ≥ 350% | A (EC1.5<1 μM) | < 350% | Cc1nc2ccc(-c3ccccc3OC(F)(F)F)nn2c1C(=O)Nc1ccccn1 [Compound 496]
25 | A (EC1.5<1 μM) | ≥ 350% | A (EC1.5<1 μM) | ≥ 350% | Cc1nc2ccc(-c3ccccc3C(F)(F)F)nn2c1C(=O)Nc1ccncc1 [Compound 499]
26 | A (EC1.5<1 μM) | ≥ 350% | B (EC1.5 1-25 μM) | < 350% | O=C(Nc1cccnn1)c1cnn2ccc(-c3ccccc3C(F)(F)F)nc12 [Compound 505]
27 | A (EC1.5<1 μM) | ≥ 350% | B (EC1.5 1-25 μM) | < 350% | Cc1cnc(NC(=O)c2cnn3ccc(-c4ccccc4C(F)(F)F)nc23)s1 [Compound 507]
28 | A (EC1.5<1 μM) | ≥ 350% | A (EC1.5<1 μM) | ≥ 350% | Cc1csc(NC(=O)c2cnn3ccc(-c4ccccc4C(F)(F)F)nc23)n1 [Compound 508]
29 | B (EC1.5 1-25 μM) | < 350% | B (EC1.5 1-25 μM) | < 350% | CN(C)[C@@H]1CCN(c2ccc3ncc(C(=O)Nc4cccc(N5CCOCC5)n4)n3n2)C1 [Compound 511]
30 | B (EC1.5 1-25 μM) | < 350% | C (EC1.5>25 μM) | < 350% | Cc1cc(C)nc(NC(=O)c2cnc3ccc(N4CC[C@@H](N(C)C)C4)nn23)c1 [Compound 513]
